For one assay, the target named is human Mcl-1 (Homo sapiens, UniProt Q07820). The assay can be described thus: FPA competition assay, displacement of FITC-Bak-BH3 peptide from Mcl-1. The format is binding. As to conditions: for LE (ligand efficiency): binding to Mcl-1; for higher Mcl-1 Ki values compared to the corresponding four-atom linker analogs: three-atom linker compounds; for increased affinity for Mcl-1 compared to the initial fragment 2: four-atom linker compounds; for improvement in Mcl-1 affinity compared to the core fragment 3: compared to fragment 3.
human Mcl-1, sequence (Q07820 172-327): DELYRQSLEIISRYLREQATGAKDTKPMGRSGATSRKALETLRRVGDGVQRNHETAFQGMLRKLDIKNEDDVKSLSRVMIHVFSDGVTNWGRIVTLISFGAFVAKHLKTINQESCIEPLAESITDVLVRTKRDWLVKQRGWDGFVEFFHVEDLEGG

In a further assay the target is cellular Mcl-1 (Homo sapiens, UniProt Q07820). The assay can be described thus: Biotin streptavidin pull-down experiment in K562 cell lysates. The format is binding. As to conditions: Western blot. (In western blotting, separated proteins are transferred to a membrane and probed.)
cellular Mcl-1, sequence (Q07820 whole entry): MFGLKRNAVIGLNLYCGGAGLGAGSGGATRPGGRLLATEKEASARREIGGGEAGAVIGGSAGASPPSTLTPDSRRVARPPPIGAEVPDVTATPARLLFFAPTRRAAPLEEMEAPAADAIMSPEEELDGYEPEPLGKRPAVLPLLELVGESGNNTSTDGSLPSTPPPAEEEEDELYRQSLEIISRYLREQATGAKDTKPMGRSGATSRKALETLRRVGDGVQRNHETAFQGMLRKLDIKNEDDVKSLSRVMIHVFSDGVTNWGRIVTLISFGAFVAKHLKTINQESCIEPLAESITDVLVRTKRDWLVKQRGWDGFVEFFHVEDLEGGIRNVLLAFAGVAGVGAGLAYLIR

“Also recorded” adds a separate entry of the source.

For `CC1Cn2c(C(=O)O)cc3cccc(c32)S1` (stereo not shown) [Compound 2], the “LE (ligand efficiency)” value on human Mcl-1 is given as 0.38.

For the compound `O=C(O)c1cc2cccc3c2n1CCS3` [Compound 3], the “LE (ligand efficiency)” value on human Mcl-1 turned out to be 0.39. As to `O=C(O)c1cc2cccc3c2n1CCC3` [Compound 4], the “LE (ligand efficiency)” value on human Mcl-1 is 0.35. With `Cc1c(C(=O)O)n2c3c(cccc13)SCC2` [Compound 5, 6-Methyl-2,3-dihydro-[1,4]thiazino[2,3,4-hi]indole-5-carboxylic acid], the “LE (ligand efficiency)” value on human Mcl-1 was determined as 0.41. Still for that read-out and setting: with `Cc1c(C(=O)O)n2c3c(cccc13)CCC2` [Compound 6, 1-Methyl-5,6-dihydro-4H-pyrrolo[3,2,1-ij]quinoline-2-carboxylic acid] the figure was 0.35; with `Cc1c(C(=O)O)n2c3c(cccc13)OCC2` [Compound 7, 6-Methyl-2,3-dihydro-[1,4]oxazino[2,3,4-hi]indole-5-carboxylic acid], 0.41.

`O=C(O)c1c(CCOc2cccc3ccccc23)c2cccc3c2n1CCS3` [Compound 16, 6-(2-(Naphthalen-1-yloxy)ethyl)-2,3-dihydro-[1,4]thiazino[2,3,4-hi]indole-5-carboxylic acid]: on human Mcl-1, the “higher Mcl-1 Ki values compared to the corresponding four-atom linker analogs” value was above 10 fold.

For the compound `O=C(O)c1c(CCOc2cccc3ccccc23)c2cccc3c2n1CCC3` [Compound 17, 1-(2-(Naphthalen-1-yloxy)ethyl)-5,6-dihydro-4H-pyrrolo[3,2,1-ij]quinoline-2-carboxylic acid], the “higher Mcl-1 Ki values compared to the corresponding four-atom linker analogs” value at human Mcl-1 is reported as above 10 fold. On the same count and under the same terms, with `O=C(O)c1c(CCOc2cccc3ccccc23)c2cccc3c2n1CCO3` [Compound 18, 6-(2-(Naphthalen-1-yloxy)ethyl)-2,3-dihydro-[1,4]oxazino[2,3,4-hi]indole-5-carboxylic acid] the figure was above 10 fold. Turning to `O=C(O)c1c(CCCOc2cccc3ccccc23)c2cccc3c2n1CCS3` [Compound 19, 6-(3-(Naphthalen-1-yloxy)propyl)-2,3-dihydro-[1,4]thiazino[2,3,4-hi]indole-5-carboxylic acid], the “increased affinity for Mcl-1 compared to the initial fragment 2” value on human Mcl-1 is “more than 2 orders of magnitude”. As for `O=C(O)c1c(CCCOc2cccc3ccccc23)c2cccc3c2n1CCC3` [Compound 20, 1-(3-(Naphthalen-1-yloxy)propyl)-5,6-dihydro-4H-pyrrolo[3,2,1-ij]quinoline-2-carboxylic acid], the “increased affinity for Mcl-1 compared to the initial fragment 2” value at human Mcl-1 was “more than 2 orders of magnitude”. Same read-out and setting: with `O=C(O)c1c(CCCOc2cccc3ccccc23)c2cccc3c2n1CCO3` [Compound 21, 6-(3-(Naphthalen-1-yloxy)propyl)-2,3-dihydro-[1,4]oxazino[2,3,4-hi]indole-5-carboxylic acid] the entry was “more than 2 orders of magnitude”. In the case of `O=C(O)c1c(CCCOc2ccc3c(c2)CCCC3)c2cccc3c2n1CCS3` [Compound 28, 6-(3-((5,6,7,8-Tetrahydronaphthalen-2-yl)oxy)propyl)-2,3-dihydro-[1,4]thiazino[2,3,4-hi]indole-5-carboxylic acid], the “reduction in affinity to Mcl-1” value at human Mcl-1 (compared to regioisomer 26 and 1-naphthyl analog 19) is listed as 3 fold. `Cc1cc(OCCCc2c(C(=O)O)n3c4c(cccc24)SCC3)ccc1Cl` [Compound 29, 6-(3-(4-Chloro-3-methylphenoxy)propyl)-2,3-dihydro-[1,4]thiazino[2,3,4-hi]indole-5-carboxylic acid]: the “improvement in Mcl-1 affinity compared to the core fragment 3” value at human Mcl-1 was 240 fold.

In the case of `Cc1cc(OCCCc2c(C(=O)O)n3c4c(cccc24)SCC3)cc(C)c1Cl` [Compound 30, 6-(3-(4-chloro-3,5-dimethylphenoxy)propyl)-2,3-dihydro-[1,4]thiazino[2,3,4-hi]indole-5-carboxylic acid], at human Mcl-1, the “improvement in Mcl-1 affinity compared to the core fragment 3” value was determined as 720 fold. With `Cc1cc(OCCCc2c(C(=O)O)n3c4c(c(Cl)ccc24)CCC3)cc(C)c1Cl` [Compound 34, 7-chloro-1-(3-(4-chloro-3,5-dimethylphenoxy)propyl)-5,6-dihydro-4H-pyrrolo[3,2,1-ij]quinoline-2-carboxylic acid], the “inhibition of biotin-MS-1 pulldown of cellular Mcl-1” value on cellular Mcl-1 is listed as “blocks the interaction with biotin MS-1 in a dose-dependent manner; also recorded: inhibits binding of biotin-MS-1 to Mcl-1 in cell lysates”.
